Data reported in patent US20050209278A1, “Piperidinyl- and piperazinyl-sulfonylmethyl hydroxamic acids and their use as protease inhibitors” (priority 2002, published 2005).
Read-outs that look alike come from different tables or passages of the source.

What was measured:
[1] = molecular target: T1, MMP-13 (Homo sapiens, UniProt P45452); assay: In vitro MMP inhibition, Ki determination (fluorogenic substrate II); assay type: biochemical; conditions: read-out: MMP-13 Ki
T1 construct: made in house; host or cells: baculovirus / insect cells
Method in brief: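 Room-temperature, 1 h incubation of APMA-activated recombinant human MMP-13 with 4 μM quenched substrate II (cleaved at Gly-Leu) in pH 7.5 Tris/NaCl/CaCl2 buffer. Inhibition appears as a slowed rise in 330/420 nm fluorescence. Single low enzyme and substrate levels were used for Ki.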

[2] = molecular target: T2, MMP-14 (Homo sapiens, UniProt P50281); assay: as above; assay type: biochemical; conditions: read-out: MMP-14 Ki
T2 construct: The catalytic domain enzyme was expressed in E. coli inclusion bodies, solubilized in urea; made in house
Method in brief: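 Apparent Ki was fitted with Morrison's equation from reaction rates at a single low enzyme level. Enzyme was APMA- or trypsin-activated refolded MMP-14 catalytic domain, buffered at pH 7.5 with 10 mM CaCl2.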

| SMILES | Ki ([1]; value outside parentheses) [nM] | Ki ([2]; value outside parentheses) [nM] | Ki ([1]; value not in parenthesis) [nM] | Ki ([2]; value not in parenthesis) [nM] |
| --- | --- | --- | --- | --- |
| CCCCOc1ccc(N2CCN(S(=O)(=O)C3(C(=O)NO)CCN(C(=O)C(C)(C)C)CC3)CC2)cc1 [Example 267] | 0.64 | > 10000 | – | – |
| O=C(NO)C1(S(=O)(=O)N2CCN(c3ccc(SC(F)(F)F)cc3)CC2)CCS(=O)(=O)CC1 [Example 258] | 30.5 | 4890 | – | – |
| CCCCOc1ccc(N2CCN(S(=O)(=O)C3(C(=O)NO)CCN(C(=O)CO)CC3)CC2)cc1 [Example 271] | 0.452 | 1460 | – | – |
| CCc1ccc(N2CCN(S(=O)(=O)C3(C(=O)NO)CCCC3)CC2)nc1 [Example 261] | 0.458 | 48.1 | – | – |
| CCCCc1ccc(C2CCN(S(=O)(=O)C3(C(=O)NO)CCN(CCOC)CC3)CC2)s1 [Example 55] | – | – | 3.94 | 2450 |
| CCCCOc1ccc(N2CCN(S(=O)(=O)C3(C(=O)NO)CCOCC3)CC2)nc1 [Example 100] | – | – | 0.06 | 411 |
| O=C(NO)C1(S(=O)(=O)N2CCN(c3cccc(C(F)(F)F)c3)CC2)CCOCC1 [Example 82] | – | – | 7.49 | 1600 |
| CCCCOc1ccc(N2CCN(S(=O)(=O)C3(C(=O)NO)CCN(c4ccc(Cl)c(Cl)c4)CC3)CC2)cc1 [Example 250] | – | – | 18.4 | > 10000 |
| CCCCOc1ccc(N2CCN(S(=O)(=O)C3(C(=O)NO)CCN(CCOC)CC3)CC2)c(F)c1 [Example 284] | 0.12 | 2770 | – | – |
| O=C(NO)C1(S(=O)(=O)N2CCC(c3ccc(-c4ccc(F)cc4F)cn3)CC2)CCOCC1 [Example 308] | 4.26 | 1040 | – | – |
| CCCCOc1ccc(N2CCN(S(=O)(=O)C3(C(=O)NO)CCN(C(=O)OCC(C)(C)C)CC3)CC2)cc1 [Example 97] | – | – | 21.9 | > 10000 |
| CCCCOc1ccc(N2CCN(S(=O)(=O)C3(C(=O)NO)CCN(c4ccc(C)cc4)CC3)CC2)cc1 [Example 295] | 9.13 | 8650 | – | – |
| CCCCOc1ccc(N2CCN(S(=O)(=O)C3(C(=O)NO)CCN(c4ccc(C(F)(F)F)cn4)CC3)CC2)cc1 [Example 257] | 12.9 | > 10000 | – | – |
| CCCCOc1ccc(N2CCN(S(=O)(=O)C3(C(=O)NO)CCN(Cc4ccccc4)CC3)CC2)cc1F [Example 285] | 2.06 | > 10000 | – | – |
| CCCCCc1ccc(N2CCN(S(=O)(=O)C3(C(=O)NO)CCN(c4ncccn4)CC3)CC2)nc1 [Example 95] | – | – | 0.68 | 597 |
| O=C(NO)C1(S(=O)(=O)N2CCN(c3ccc(C(F)(F)F)cn3)CC2)CCOCC1 [Example 94] | – | – | 0.82 | 221 |
| CCc1ccc(N2CCN(S(=O)(=O)C3(C(=O)NO)CCCCC3)CC2)nc1 [Example 263] | 0.262 | 34 | – | – |
| CCCCOc1ccc(N2CCN(S(=O)(=O)C3(C(=O)NO)CCN(c4ccc(Cl)nn4)CC3)CC2)cc1 [Example 281] | 0.442 | 1630 | – | – |
| COCCN1CCC(C(=O)NO)(S(=O)(=O)N2CCC(c3ccc(CCC(F)(F)F)cc3)CC2)CC1 [Example 309] | 0.355 | 1440 | – | – |
| CCCCOc1ccc(N2CCN(S(=O)(=O)C3(C(=O)NO)Cc4ccccc4C3)CC2)nc1 [Example 85] | – | – | 0.25 | 1510 |
| CCCCc1ccc(N2CCN(S(=O)(=O)C3(C(=O)NO)CCN(c4cccnc4)CC3)CC2)nc1 [Example 96] | – | – | 0.44 | 816 |
| CCCCOc1ccc(N2CCN(S(=O)(=O)C3(C(=O)NO)CCN(C4CC4)CC3)CC2)cc1 [Example 301] | 0.23 | – | – | – |
| COCCN1CCC(C(=O)NO)(S(=O)(=O)N2CCC(c3ccc(CCC(F)(F)C(F)(F)F)cc3)CC2)CC1 [Example 312] | 0.2 | 2040 | – | – |
| CCCCOc1ccc(N2CCN(S(=O)(=O)C3(C(=O)NO)CCN(c4nc5ccccc5s4)CC3)CC2)cc1 [Example 93] | – | – | 26 | 9860 |
| COCCN1CCC(C(=O)NO)(S(=O)(=O)N2CCN(c3ccc(Oc4ccccc4)cc3)CC2)CC1 [Example 287] | 3.33 | 6940 | – | – |
| C#CCN1CCC(C(=O)NO)(S(=O)(=O)N2CCN(c3ccc(OCCCC)cc3)CC2)CC1 [Example 303] | 0.46 | 5000 | – | – |
| CCCCOc1ccc(N2CCN(S(=O)(=O)C3(C(=O)NO)CCN(C(=O)c4ccncc4)CC3)CC2)cc1 [Example 259] | 0.359 | 2650 | – | – |
| CCCCOc1ccc(N2CCN(S(=O)(=O)C3(C(=O)NO)CCN(c4ccc(Cl)cc4)CC3)CC2)cc1 [Example 251] | 12.9 | > 10000 | – | – |
| O=C(NO)C1(S(=O)(=O)N2CCC(c3ccc(Br)cn3)CC2)CCOCC1 [Example 306] | 0.863 | 31.7 | – | – |
| O=C(NO)C1(S(=O)(=O)N2CCN(c3ccc(OC4CCC4)c(F)c3)CC2)CCOCC1 [Example 73] | – | – | 9.78 | 2360 |
